Read-outs that look alike come from different tables or passages of the source.
Key:
[1] = system: memory impairment induced by scopolamine; assay: Step-down passive avoidance test, impairment caused by scopolamine in mice; assay type: in vivo, Male ICR mice; settings: for Number of errors: during 5 min; for Number of errors / Latency: scopolamine 1 mg/kg i.p.; for effect on scopolamine-induced impairment of passive avoidance (step-down latency, number of errors): result in words
Experimental: Male ICR mice, 24-28 g, were used. The mice were housed for 2 days period of habituation before experiment. Mice were randomized into groups (n=20).
The mice were administered by gavage of physiological saline, or drugs at different doses, respectively in the negative control, scopolamine group, and test drugs groups. Twice daily for 2 days.
At D3, 30 min after administration of test drugs, scopolamine (1 mg/kg i.p) was administered, except for the control group.
30 min later, each mouse was individually placed onto the safety platform in the box of step-down apparatus. When the mouse stepped down and touched the grid floor, it was given an electric shock with a tension of 36V, and jumped back onto the rubber platform. Each animal was trained for 5 min and returned to the home cage.
24 hours after the learning trial, the animal was again placed on the platform and the step-down latency and the number of step-down events (number of errors) during 5 min were recorded.

[2] = system: KM mice; assay: Acute toxicity study in mice; assay type: in vivo; settings: 0.5 g/kg i.p. or p.o.
Text: KM mice were used for this experiment. 10 male and 10 female mice were included in each group. CE (5 g/kg) or W6-W9 (0.5 g/kg) were given by oral or by i.p. The animals were observed carefully and their body weight were checked every 3 days within 2 weeks.

[3] = system: learning and memory performance impairment caused by permanent occlusion of carotid arteries; assay: Water-maze test, permanent occlusion of 2 carotid arteries (2-VO) in mice; assay type: in vivo; settings: 2-VO mice, four weeks after surgery, dose 1 mg/kg po daily
Text: (§1) Water-maze test: Each mouse was first placed on the stairs, then released into the water from position 1 and allowed 120 sec to find the stairs. The mouse received 2 trials per day for 3 days. The starting location varied from position 1 to position 2 and position 3 for the next 2 day. The distance and the dead end increased every day. In D4, the mouse was put into water from position 3, the time to escape from water to the stairs and the number of entering the dead ends (number of errors) were measured. This method is used to evaluate the spatial performance and learning and memory performance of animal.
(§2) At surgery, under pentobarbital anaesthesia (40 mg/kg i.p.), the common carotid arteries of mice were exposed and occluded with thread permanently and the surrounding skin sutured. Sham-operated controls had their carotids exposed but not occluded. After 1 week, the survival mice with occluded carotids were randomly divided into 3 groups. 2 groups were repeated administered with CE (5 mg/kg, po) or W6 (1 mg/kg, po) daily. Four weeks after surgery, mice were trained and tested in a water maze and step-down apparatus.

[4] = system: Aβ(1-42)-induced memory impairment; assay: Water-maze test, Aβ(1-42)-induced impairment of learning and memory in mice; assay type: in vivo
Experimental: (§3) Aβ(1-42) (10 μg/mouse) was administered via ICV injection. The sham group was given same volumn of Ringer's solution. One week later, The mice with injection of Aβ(1-42) were randomly divided into 3 groups, and were administered by oral with saline, CE (5 mg/kg) or W6 (1 mg/kg), respectively. Two weeks later, step-down test and water-maze test were performed for evaluating the capacity of learning and memory of mice.
as §1

[5] = target: Acetylcholinesterase (AchE) (Rattus norvegicus, UniProt P37136); settings: for inhibition (%): AchE activity, rat forebrain; for AchE activity: rat forebrain homogenate
Experimental: The rats were fasting over night and given a single oral dose of drugs. 1 hour later, the rats were decapitated, the forebrains were rapidly removed under ice bath, weighed and homogenized in 0.9% saline using a ultrasonic homogenizer to obtain 10% brain homogenate. The homogenate was centrifuged (6000 rpm) for 20 mins at low temperature, and retained the supernatant. Then the AchE activity was measured with an assay kit.

[6] = system: learning and memory performance impairment caused by permanent occlusion of carotid arteries; assay: Step-down test, permanent occlusion of 2 carotid arteries (2-VO) in mice; assay type: in vivo
Experimental: as §2

[7] = system: cycloheximide-induced memory deficit; assay: Step-down passive avoidance test, impairment induced by cycloheximide in mice; assay type: in vivo; settings: for Improvement (%): step-down latency; for Improvement (%) / Latency / No. of errors: cycloheximide 120 mg/kg i.p.; for Latency / No. of errors: step-down test; for No. of errors: during 5 min
Experimental: The randomization and the administration of drugs are as before. The mice were administered with cycloheximide (120 mg/kg i.p), except for the control group. 30 min later, each mouse was individually placed onto the platform of the step-down apparatus, and trained for 5 min. The retention test started 24 hours later, the step-down latency and the number of step-down events (number of errors) during 5 min were recorded.

[8] = system: Aβ(1-42)-induced memory impairment; assay: Step-down test, Aβ(1-42)-induced impairment (ICV injection) in mice; assay type: in vivo
Experimental: as §3

[9] = 1 hour after single oral dose 5 mg/kg
[10] = 1 hour after single oral dose 20 mg/kg
[11] = step-down test, 2-VO mice, four weeks after surgery, dose 1 mg/kg po daily
[12] = step-down test, Aβ(1-42) 10 μg/mouse ICV, mice, dose 1 mg/kg oral, two weeks

Acetylcholinesterase (AchE), sequence (P37136 32-614): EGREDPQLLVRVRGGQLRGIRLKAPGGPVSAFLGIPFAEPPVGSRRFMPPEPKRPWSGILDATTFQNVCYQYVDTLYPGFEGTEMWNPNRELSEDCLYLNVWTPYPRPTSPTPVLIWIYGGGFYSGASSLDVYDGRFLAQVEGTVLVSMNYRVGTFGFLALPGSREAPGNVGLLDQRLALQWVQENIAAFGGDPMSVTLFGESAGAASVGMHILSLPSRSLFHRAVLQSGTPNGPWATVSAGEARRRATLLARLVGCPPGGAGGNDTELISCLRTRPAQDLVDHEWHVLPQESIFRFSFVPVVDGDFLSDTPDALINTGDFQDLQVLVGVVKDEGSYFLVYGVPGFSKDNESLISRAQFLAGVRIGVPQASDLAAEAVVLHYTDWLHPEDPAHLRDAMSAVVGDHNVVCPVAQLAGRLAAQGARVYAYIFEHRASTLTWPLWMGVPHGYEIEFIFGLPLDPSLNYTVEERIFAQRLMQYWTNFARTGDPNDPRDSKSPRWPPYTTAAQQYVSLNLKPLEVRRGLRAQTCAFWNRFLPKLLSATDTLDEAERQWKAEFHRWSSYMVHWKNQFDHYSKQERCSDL

CC(C)CC(O)(C(=O)OCc1ccc(O[C@@H]2O[C@H](CO)[C@@H](O)[C@H](O)[C@H]2O)cc1)C(O)C(=O)OCc1ccc(O[C@@H]2O[C@H](CO)[C@@H](O)[C@H](O)[C@H]2O)cc1 (stereo partly drawn) [Compound W7, 1,4-bis(β-D-glucopyranosyloxybenzyl)-2-isobutyltartrate]
Number of errors ([1]; dose 0.25 mg/kg by gavage): 0.4 ± 0.7 | Number of errors ([1]; dose 1 mg/kg by gavage): 0.2 ± 0.4 | effect on scopolamine-induced impairment of passive avoidance (step-down latency, number of errors) [1]: attenuated the scopolamine-induced impairment of passive avoidance behaviors | Latency ([1]; dose 0.25 mg/kg by gavage): 205 ± 142 s | Latency ([1]; dose 1 mg/kg by gavage): 237 ± 125 s | acute toxicity (animal death and body weight) [2]: The result is the same

CC(C)CC(CC(=O)OCc1ccc(O[C@@H]2O[C@H](CO)[C@@H](O)[C@H](O)[C@H]2O)cc1)(O[C@@H]1O[C@H](CO)[C@@H](O)[C@H](O)[C@H]1O)C(=O)OCc1ccc(O[C@@H]2O[C@H](CO)[C@@H](O)[C@H](O)[C@H]2O)cc1 (stereo partly drawn) [Compound W8, 1,4-bis(β-D-glucopyranosyloxybenzyl)-2-β-D-glucopyranosyl-2-isobutylmalate]
Number of errors ([1]; dose 0.25 mg/kg by gavage): 0.7 ± 0.9 | Number of errors ([1]; dose 1 mg/kg by gavage): 0.3 ± 0.5 | effect on scopolamine-induced impairment of passive avoidance (step-down latency, number of errors) [1]: attenuated the scopolamine-induced impairment of passive avoidance behaviors | Latency ([1]; dose 0.25 mg/kg by gavage): 197 ± 144 s | Latency ([1]; dose 1 mg/kg by gavage): 218 ± 127 s | acute toxicity (animal death and body weight) [2]: The result is the same

CC(C)CC(O)(CC(=O)OCc1ccc(O[C@@H]2O[C@H](CO)[C@@H](O)[C@H](O)[C@H]2O)cc1)C(=O)OCc1ccc(O[C@@H]2O[C@H](CO)[C@@H](O)[C@H](O)[C@H]2O)cc1 (stereo partly drawn) [Compound W9, 1,4-bis(β-D-glucopyranosyloxybenzyl)-2-hydroxy-2-isobutylmalate]
Number of errors ([1]; dose 0.25 mg/kg by gavage): 0.8 ± 0.7 | Number of errors ([1]; dose 1 mg/kg by gavage): 0.4 ± 0.5 | effect on scopolamine-induced impairment of passive avoidance (step-down latency, number of errors) [1]: attenuated the scopolamine-induced impairment of passive avoidance behaviors | Latency ([1]; dose 0.25 mg/kg by gavage): 140 ± 129 s | Latency ([1]; dose 1 mg/kg by gavage): 210 ± 134 s | acute toxicity (animal death and body weight) [2]: The result is the same

CC(C)CC(O[C@@H]1O[C@H](CO)[C@@H](O)[C@H](O)[C@H]1O)(C(=O)OCc1ccc(O[C@@H]2O[C@H](CO)[C@@H](O)[C@H](O)[C@H]2O)cc1)C(O)C(=O)OCc1ccc(O[C@@H]2O[C@H](CO)[C@@H](O)[C@H](O)[C@H]2O)cc1 (stereo partly drawn) [Compound W6, 1,4-bis(β-D-glucopyranosyloxybenzyl)-2-β-D-glucopyranosyl-2-isobutyltartrate]
Number of errors ([1]; dose 0.03 mg/kg by gavage): 0.2 ± 0.1 | Number of errors ([1]; dose 0.3 mg/kg by gavage): 0.4 ± 0.2 | Number of errors ([1]; dose 3 mg/kg by gavage): 0.3 ± 0.1 | effect on scopolamine-induced impairment of passive avoidance (step-down latency, number of errors) [1]: attenuated the scopolamine-induced impairment of passive avoidance behaviors | Latency ([1]; dose 0.03 mg/kg by gavage): 283 ± 38 s | Latency ([1]; dose 0.3 mg/kg by gavage): 259 ± 34 s | Latency ([1]; dose 3 mg/kg by gavage): 258 ± 17 s | Escape Latency [3]: 33 ± 19 s | Number of errors [3]: 5.4 ± 1.4 | effect on Aβ(1-42)-induced decrease in spatial working memory ([4]; treatment for 2 weeks, water maze, result in words): significantly improved | Number of errors ([4]; water-maze test (entering dead ends), Aβ(1-42) 10 μg/mouse ICV, mice, dose 1 mg/kg oral, two weeks): 3.1 ± 0.8 | Escape Latency ([4]; water-maze test, Aβ(1-42) 10 μg/mouse ICV, mice, dose 1 mg/kg oral, two weeks): 46 ± 11 s | acute toxicity (animal death and body weight) [2]: The result is the same | inhibition (%) [5, 9]: 0% | inhibition (%) [5, 10]: 0% | AchE activity [5, 9]: 0.80 ± 0.16 | AchE activity [5, 10]: 0.72 ± 0.16 | inhibition on activity of AchE ([5]; single dose to rats): no inhibition | effect on deficits of learning and memory caused by cerebral hypoperfusion ([6]; mice and rats, long term treatment, step-down testing and water-maze testing, result in words): significantly alleviated these changes | Latency [6, 11]: 253 ± 31 s | Number of errors [6, 11]: 0.2 ± 0.1 | effect on cycloheximide-induced reduction of latency and number of errors ([7]; passive avoidance, result in words): significantly reversed the cycloheximide-induced reduction of step-down latency | Improvement (%) ([7]; dose 1.25 mg/kg): 57% | Improvement (%) ([7]; dose 2.5 mg/kg): 65% | Improvement (%) ([7]; dose 5 mg/kg): 38% | Improvement (%) ([7]; dose 10 mg/kg): 61% | Latency ([7]; dose 1.25 mg/kg): 211 ± 31 s | Latency ([7]; dose 2.5 mg/kg): 223 ± 24 s | Latency ([7]; dose 5 mg/kg): 182 ± 33 s | Latency ([7]; dose 10 mg/kg): 216 ± 29 s | No. of errors ([7]; dose 1.25 mg/kg): 0.6 ± 1.2 | No. of errors ([7]; dose 2.5 mg/kg): 0.7 ± 0.9 | No. of errors ([7]; dose 5 mg/kg): 0.4 ± 0.5 | No. of errors ([7]; dose 10 mg/kg): 0.3 ± 0.5 | effect on Aβ(1-42)-induced impairment in passive avoidance performance ([8]; mice or rats, treatment for 2 weeks, result in words): significantly blocked | Latency [8, 12]: 110 ± 37 s | Number of errors [8, 12]: 0.9 ± 0.2

From patent US7557089B2, “Use of derivatives of succinate esters for the treatment of dementia” (priority 2002, dated 2009)
